From a melting point compilation (Tetko et al.) come the findings set out here.

The conditions of the series: a range is the spread between reports.
For the compound `N=C(Nc1ccccc1)Nc1ccccc1`, the melting point lay within 149 to 150 °C.
The compound `NC(N)=NC(=O)c1nc(Cl)c(N)nc1N` registered a melting point of 240 to 241 °C.
`Oc1cccc(F)c1` had a melting point of 10 to 13.7 °C.
As for `CC#CC`, the melting point was -32.3 to -32 °C.
With `O=c1cc(-c2ccccc2)oc2ccccc12`, the melting point fell in the range of 97 to 100 °C.
On to `CCOc1ccccc1`, for which the melting point was -30 to -29.5 °C.
On to `OCC(O)c1ccccc1` (configuration not stated), for which the melting point was 67 to 68 °C.
As for `COc1cccc(Cl)c1Cl`, the melting point lay within 31 to 32 °C.
As for `CC(=O)c1ccco1`, the melting point was 29 to 33 °C.
Turning to `CC1(C)CCCCC1`, the melting point is -33.3 to -33 °C.
In the case of `O=C1CCC(=O)N1` it was 124 to 126 °C; in that of `CCCCCCCCCCCCC=O`, 14 to 15 °C; in that of `C1=CCCC1`, -135 °C.
In turn, `COc1ccc(O)cc1` showed a melting point of 55 to 57 °C.
The value for `CCCCCCCCCC=O` was -6 to -5 °C; that for `CC(C)C(C)C(C)C` was -110 to -109 °C; that for `O=[N+]([O-])c1ccc(CCl)cc1` was 71 to 73 °C.
`CCO`: the melting point was -114 °C.
Compound `CCCCCCCCCC(C)=O` gave a melting point of 12 to 15 °C.
In turn, `O=S(=O)(Cc1ccccc1)c1ccccc1` had a melting point of 146 to 149 °C.
In the case of `CCC(=O)c1ccc(Cl)cc1` it was 35 to 37.3 °C; in that of `Nc1cc([N+](=O)[O-])ccc1O`, 143 to 144 °C; in that of `O=C(Cl)c1ccc(F)cc1`, 9 to 10 °C.
Compound `N#Cc1ccc2ccccc2c1` displayed a melting point of 65 to 66 °C.
In turn, `O=C1c2ccccc2-c2ccccc21` had a melting point of 83 to 84 °C.
Consider `O=C(O)Cc1ccc(C(F)(F)F)cc1`, for which the melting point lay within 80 to 84 °C.
For the compound `C1CO1`, the melting point was -112 to -111 °C.
Turning to `N#Cc1c(F)cccc1F`, the melting point was in the range of 30 to 31 °C.
In the case of `O=C(O)c1ccc(Cl)c([N+](=O)[O-])c1`, the melting point fell in the range of 182 to 183 °C.
Turning to `O=C(Cl)c1ccccc1Br`, the melting point lay in the range of 10 to 11 °C.
With `CCCCCC(C)CC` (configuration not stated), the melting point was -108 °C.
As for `Nc1ccccc1Oc1ccccc1`, the melting point lay within 45.8 to 47 °C.
Regarding `O=C(OC(=O)C(F)(F)F)C(F)(F)F`, the melting point is -65 to -63 °C.
In turn, `O=C(O)/C=C/c1ccccc1[N+](=O)[O-]` came in with a melting point of 244 to 247 °C.
`CC1(C(=O)O)CCCCC1` had a melting point of 37.5 to 38 °C.
Regarding `Cc1ccc(O)c([N+](=O)[O-])c1`, the melting point lay within 34 to 36.5 °C.
`Oc1ccc2c(c1)[nH]c1ccccc12` yielded a melting point of 272 °C.
Consider `N#CCc1ccc(Br)cc1`, for which the melting point lay in the range of 47 to 48 °C.
Turning to `Nc1ccccc1-c1ccccc1`, the melting point lay in the range of 49 to 51.5 °C.
Compound `CC(=O)CC(=O)c1ccccc1` returned a melting point of 56 to 59 °C.
In the case of `CCCC(C)Br` (configuration not stated), the melting point is -96 to -95.5 °C.
In the case of `CC(C)C(C)(C)C(C)(C)C`, the melting point was -36.4 to -36 °C.
As to `CC(=O)Nc1ccc(N)cc1`, the melting point is 163 to 166 °C.
The value for `COc1cc(OC)c(OC)cc1C=O` was 113 to 114 °C; that for `O=Cc1ccccc1[N+](=O)[O-]` was 43.5 to 46 °C; that for `O=C(OC(=O)c1ccccc1)c1ccccc1` was 42 to 42.5 °C.
Consider `CC(C)c1ccccc1Cl`, for which the melting point is -74.4 to -74 °C.
In the case of `O=C(O)COc1cccc(Cl)c1`, the melting point is 108 to 110 °C.
Turning to `CCCCCS`, the melting point was -76 to -75.7 °C.
In the case of `COC(=O)c1ccc(C=O)cc1` it was 60 to 61 °C; in that of `O=C1OC2(c3ccc(O)cc3Oc3cc(O)ccc32)c2ccccc21`, 315 to 320 °C; in that of `O=Cc1ccc(C(=O)O)cc1`, 245 to 247 °C.
Consider `Sc1ccc(Br)cc1`, for which the melting point was in the range of 73 to 75 °C.
The value for `Cc1c(C(=O)O)cnn1-c1ccccc1` was 167 to 168 °C; that for `CCC(C)N` (configuration not stated) was -105 to -104 °C.
In the case of `CCOC(=O)Cc1ccccc1`, the melting point is -29.4 to -29 °C.
`O=C(O)C=Cc1ccc(Cl)cc1`: the melting point lay in the range of 248 to 249 °C.
The value for `Ic1ccccc1` was -31.3 to -31 °C; that for `OCC(F)(F)C(F)(F)C(F)(F)CO` was 78 to 79.5 °C.
Take `Cc1cc(=O)cc(C)o1`: the melting point was in the range of 132 to 134 °C.
For the compound `O=C(O)Cc1ccc(Cl)cc1`, the melting point is 103 to 106 °C.
`O=[N+]([O-])c1cccc2c([N+](=O)[O-])cccc12` registered a melting point of 216 to 219 °C.
The value for `c1ccc(-c2ccncc2)nc1` was 61 to 61.5 °C; that for `NC(=O)c1ccc(-c2ccccc2)cc1` was 223 to 228 °C; that for `N#Cc1c(F)c(F)c(F)c(F)c1F` was 2 to 2.4 °C.
Compound `Oc1cccc(Cl)c1Cl` came in with a melting point of 56 to 59 °C.
On to `O=C1C=CCO1`, for which the melting point was 4 to 4.5 °C.
Take `O=[N+]([O-])c1cccc(Br)c1`: the melting point lay in the range of 54 to 56 °C.
As to `CCOc1ccc2ccccc2c1`, the melting point fell in the range of 36 to 37.5 °C.
On to `C1=CC2CCC1C2`, for which the melting point lay within 45 to 46 °C.
The value for `Cc1ccc(C(C)C)c(O)c1` was 49 to 51.5 °C; that for `CC(C)O` was -90 to -88 °C; that for `N#Cc1cccc(N)c1` was 52 to 54.3 °C.
As for `O=[N+]([O-])c1cccc(CCl)c1`, the melting point fell in the range of 45 to 47 °C.
As for `Cc1cc(N)nc(C)n1`, the melting point is 183 to 185 °C.
The compound `O=[N+]([O-])c1ccccc1CO` gave a melting point of 72 to 74 °C.
For `NNC(=O)c1ccccc1[N+](=O)[O-]`, the melting point lay within 121 to 124 °C.
With `CCCCCC(=O)OC(=O)CCCCC`, the melting point is -41 to -40 °C.
As to `CCOC(=O)C(C(=O)OCC)C(=O)OCC`, the melting point fell in the range of 28 to 29 °C.
On to `CC(C)CCCCC(C)C`, for which the melting point is -55 to -54 °C.
As to `CC(C)C(=O)O`, the melting point was -47 to -46 °C.
The value for `Oc1ccccc1O` was 105 to 106 °C.
On to `Oc1ccc(NCc2ccccc2)cc1`, for which the melting point is 84 to 88 °C.
Compound `COc1ccc(Cc2nccc3cc(OC)c(OC)cc23)cc1OC` returned a melting point of 147 to 148 °C.
For `CCCCCCCCCCCCCCCC`, the melting point was in the range of 18 to 18.1 °C.
On to `N#Cc1ccc(Cl)cc1`, for which the melting point is 92 to 95 °C.
Compound `CC(C)(Oc1ccc(Cl)cc1)C(=O)O` came in with a melting point of 118 to 120 °C.
`NCCCCNCCCN` displayed a melting point of 23.5 to 24 °C.
In the case of `Nc1c(Cl)cc(Cl)cc1Br`, the melting point was in the range of 80 to 83.5 °C.
In the case of `O=C(O)c1ccc(C(F)(F)F)cc1` it was 220 to 221 °C; in that of `O=Cc1cc([N+](=O)[O-])ccc1O`, 125 to 129 °C.
As to `O=Cc1ccc(C=O)cc1`, the melting point is 115 to 117 °C.
The compound `O=C(O)CCCCCBr` registered a melting point of 34 to 35 °C.
In the case of `O=Cc1ccccc1Br` it was 20 to 22 °C; in that of `O=C(O)CCCCCCCCCCCCCCCCCCC(=O)O`, 126 to 127 °C; in that of `O=S(=O)(Cc1ccccc1)Cc1ccccc1`, 151 to 152 °C.
Turning to `Cc1ccnc(N)c1`, the melting point lay in the range of 99 to 100 °C.
Take `O=[N+]([O-])c1ccccc1`: the melting point is 5 to 6 °C.
With `O=Cc1cc2c(cc1[N+](=O)[O-])OCO2`, the melting point lay within 93.5 to 95 °C.
The value for `CCCCCCCCCCCCCCCCCC(=O)OC[C@@H](O)[C@H]1OC[C@H](O)[C@H]1O` was 55 to 57 °C; that for `COc1ccc(C(C)=O)cc1OC` was 49 to 51 °C.
The value for `O=C(O)c1ccc(C(=O)c2ccccc2)cc1` was 198 to 199 °C; that for `O=Cc1ccc2ccccc2c1` was 61 to 62 °C.
Take `c1ccc2c(c1)CCC2`: the melting point is -51.4 to -51 °C.
`Fc1ccc(Br)cc1`: the melting point is -17.4 to -16 °C.
As to `Cc1cc(O)ccc1O`, the melting point lay within 128 to 129 °C.
`O[Si](c1ccccc1)(c1ccccc1)c1ccccc1` yielded a melting point of 152 to 155 °C.
In the case of `CCCCCCCCCCC=O` it was -4 to 0 °C; in that of `CC(C)(C(=O)O)c1ccccc1`, 79 to 81 °C; in that of `O=C(OCc1ccccc1)c1ccccc1C(=O)OCc1ccccc1`, 41 to 44 °C.
Consider `CCCCCCCCCCCCCC(C)=O`, for which the melting point lay within 39 to 39.5 °C.
The compound `Cc1cccc(C)c1[N+](=O)[O-]` registered a melting point of 15 to 16 °C.
In turn, `CN(C)c1ccc(Br)cc1` returned a melting point of 54 to 55 °C.
`CC(=O)c1ccc(I)cc1` yielded a melting point of 83 to 86 °C.
Compound `NCCS` gave a melting point of 96 to 98 °C.
Regarding `Nc1c(F)c(F)cc(F)c1F`, the melting point was in the range of 31 to 31.5 °C.
Consider `CC(=O)NC12CC3CC(CC(C3)C1)C2`, for which the melting point was determined as 148 °C.
In the case of `COC(=O)c1ccc([N+](=O)[O-])cc1` it was 95 to 96 °C.
Take `O=[N+]([O-])c1cc(Br)ccc1Br`: the melting point was 82 to 85.5 °C.
`Nn1cnnc1` yielded a melting point of 82.5 to 86 °C.
On to `CCCCCCC(=O)OCC`, for which the melting point is -66.1 to -66 °C.
In the case of `c1ccc(-c2ccccc2)cc1`, the melting point is 69 to 71 °C.
In turn, `OCc1cccc2ccccc12` yielded a melting point of 61 to 64 °C.
`c1ccc2c(c1)Cc1cc3ccccc3cc1-2`: the melting point fell in the range of 208 to 212 °C.
Compound `O=[N+]([O-])c1ccccc1O` registered a melting point of 44 to 46 °C.
With `CCCCCCCCCC`, the melting point is -30 to -29.7 °C.
Compound `C[Si]1(C)O[Si](C)(C)O[Si](C)(C)O1` returned a melting point of 60 to 65 °C.
The value for `Cn1c2ccccc2c2ccccc21` was 89.3 to 91 °C; that for `Brc1ccc2ccccc2c1` was 54 to 59 °C.
As to `C[Si]1(C)N[Si](C)(C)N[Si](C)(C)N[Si](C)(C)N1`, the melting point is 96 to 97.5 °C.
With `CCCC(=O)CC`, the melting point is -55.5 to -55 °C.
Take `CCOC(=O)c1ccc(O)cc1`: the melting point fell in the range of 116 to 117 °C.
`O=C(O)Cc1cccc(C(F)(F)F)c1` displayed a melting point of 77 to 78 °C.
As for `CCCCCCC(O)C(=O)O` (configuration not stated), the melting point was in the range of 69 to 70 °C.
For the compound `Nc1ccc(F)c([N+](=O)[O-])c1`, the melting point fell in the range of 96 to 97.5 °C.
For the compound `C1CCSC1`, the melting point is -96.1 to -96 °C.
For `COc1cccc([N+](=O)[O-])c1`, the melting point fell in the range of 38 to 38.5 °C.

Usually melting point stands for the temperature, or range, at which the solid turns liquid.
